Results on one compound are retold here after publication PMC10914475 (iScience, 2024).

One may read the IC50 as the concentration needed to halve the response being measured. A low value points to inhibition by little substance.

For the assay, the target named is SfCht5 (S. frugiperda chitinase 5; rSfCht5) (Spodoptera frugiperda, UniProt A0A8K1Z7B3). The assay is described as follows: residual endochitinase activity with synthetic substrate. Type of assay: biochemical.
Sequence of SfCht5 (S. frugiperda chitinase 5; rSfCht5) (A0A8K1Z7B3 21-555): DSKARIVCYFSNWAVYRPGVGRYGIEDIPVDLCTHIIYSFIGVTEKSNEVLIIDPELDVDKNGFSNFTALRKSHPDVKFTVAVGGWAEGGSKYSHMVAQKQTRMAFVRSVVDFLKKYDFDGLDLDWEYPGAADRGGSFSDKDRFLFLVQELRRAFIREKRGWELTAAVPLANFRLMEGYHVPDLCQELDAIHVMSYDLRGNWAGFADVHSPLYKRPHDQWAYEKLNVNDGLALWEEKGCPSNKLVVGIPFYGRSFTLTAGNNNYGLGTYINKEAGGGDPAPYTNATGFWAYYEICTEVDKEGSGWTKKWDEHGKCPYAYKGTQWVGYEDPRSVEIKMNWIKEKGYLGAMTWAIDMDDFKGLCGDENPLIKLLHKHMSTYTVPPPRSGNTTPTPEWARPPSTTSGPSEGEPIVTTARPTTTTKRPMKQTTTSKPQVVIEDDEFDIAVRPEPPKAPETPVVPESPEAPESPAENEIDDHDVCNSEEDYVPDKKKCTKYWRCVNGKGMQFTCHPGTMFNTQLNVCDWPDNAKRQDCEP

`COc1ccc2cc3[n+](cc2c1OC)CCc1cc2c(cc1-3)OCO2` [berberine, 9,10-Dimethoxy-5,6-dihydro-[1,3] dioxolo[4,5-g]isoquinolino[3,2-a]isoquinolin-7-ium chloride dihydrate] showed a concentration for half-maximal inhibition (IC50) of about 158 µM.
